Biological target: α-glucosidase
Experiment: p-nitrophenyl glycoside hydrolysis assay, absorbance at […] nm
Assay type: biochemical

Compound: C=C[C@]1(C)C=C2[C@@H](O)[C@@]3(O)OC[C@@]4(CCCC(C)(C)[C@@]43O)[C@@]2(O)CC1 [compound 2, 11-deoxydiaporthein A]
- IC50: 11.9 ± 0.4 µM

Compound: Oc1ccc(/C=C/c2cc(O)cc(O)c2)cc1 [Resveratrol, reference compound]
- IC50: 31.2 ± 4.4 µM

Compound: C=C[C@@]1(C)C[C@@H](O)C2=C(C(=O)[C@@]3(O)OC[C@@]24CCCC(C)(C)[C@@]43O)[C@H]1OC [compound 1, Isopimarane diterpene (1)]
- IC50: 4.6 ± 0.1 µM

Source: publication PMC4377976, “Bioactive Isopimarane Diterpenes from the Fungus, Epicoccum sp. HS-1, Associated with Apostichopus japonicus” (Marine Drugs, 2015)
